Seven molecules from patent US8119644B2, “Thiadiazole-substituted arylamides as P2X3 and P2X2/3 antagonists” (Roche Palo Alto LLP, priority 2008, dated 2012) can be followed below.

Assay [1] has as its target T1, human P2X2/3 receptor (Homo sapiens, UniProt P56373+Q9UBL9).
T1 construct: expressed in transfected cells; host or cells: CHO-K1
T1 sequence (Q9UBL9 1-471): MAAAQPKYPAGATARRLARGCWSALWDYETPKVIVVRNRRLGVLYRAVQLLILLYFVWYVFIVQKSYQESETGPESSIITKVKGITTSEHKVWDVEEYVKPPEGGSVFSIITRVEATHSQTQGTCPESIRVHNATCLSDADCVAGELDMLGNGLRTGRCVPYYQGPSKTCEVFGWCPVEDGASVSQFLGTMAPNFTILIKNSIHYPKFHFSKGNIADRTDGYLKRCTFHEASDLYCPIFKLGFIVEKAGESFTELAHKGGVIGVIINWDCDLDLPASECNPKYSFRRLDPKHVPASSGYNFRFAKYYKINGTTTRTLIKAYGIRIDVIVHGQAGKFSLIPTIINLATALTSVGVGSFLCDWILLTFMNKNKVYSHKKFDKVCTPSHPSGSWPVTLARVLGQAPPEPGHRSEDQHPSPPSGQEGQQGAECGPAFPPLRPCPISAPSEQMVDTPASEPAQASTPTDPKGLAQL
T1 sequence (P56373 1-397): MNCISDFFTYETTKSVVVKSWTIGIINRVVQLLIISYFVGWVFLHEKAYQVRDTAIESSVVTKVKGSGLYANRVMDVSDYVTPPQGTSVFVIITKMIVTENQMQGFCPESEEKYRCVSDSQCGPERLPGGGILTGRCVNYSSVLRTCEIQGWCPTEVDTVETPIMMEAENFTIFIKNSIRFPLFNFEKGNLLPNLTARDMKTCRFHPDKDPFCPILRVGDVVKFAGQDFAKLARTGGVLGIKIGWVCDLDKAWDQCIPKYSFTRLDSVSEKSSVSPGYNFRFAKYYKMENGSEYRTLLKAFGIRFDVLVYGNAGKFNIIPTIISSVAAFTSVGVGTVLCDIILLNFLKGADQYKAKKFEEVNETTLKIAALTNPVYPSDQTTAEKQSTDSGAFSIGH
Put plainly: P2X2/3 FLIPR (Fluorometric Imaging Plate Reader) assay, CHO-K1 cells. The format is cell-based. The note with it: CHO-K1 cells transfected with human P2X2/3; agonist α,β-meATP 5 μM; Fluo-3 calcium fluorescence; read-out: P2X2/3 (pKi) (converted). The method, then:
(§1) P2X3/P2X2/3 FLIPR (Fluorometric Imaging Plate Reader) Assay
(§2) CHO-K1 cells were transfected with cloned rat P2X3 or human P2X2/3 receptor subunits and passaged in flasks. 18-24 hours before the FLIPR experiment, cells were released from their flasks, centrifuged, and resuspended in nutrient medium at 2.5×10^5 cells/ml. The cells were aliquoted into black-walled 96-well plates at a density of 50,000 cells/well and incubated overnight in 5% CO2 at 37° C. On the day of the experiment, cells were washed in FLIPR buffer (calcium- and magnesium-free Hank's balanced salt solution, 10 mM HEPES, 2 mM CaCl2, 2.5 mM probenecid; FB). Each well received 100 μl FB and 100 μl of the fluorescent dye Fluo-3 AM [2 μM final conc.]. After a 1 hour dye loading incubation at 37° C., the cells were washed 4 times with FB, and a final 75 μl/well FB was left in each well.
(§3) Test compounds (dissolved in DMSO at 10 mM and serially diluted with FB) or vehicle were added to each well (25 μl of a 4× solution) and allowed to equilibrate for 20 minutes at room temperature. The plates were then placed in the FLIPR and a baseline fluorescence measurement (excitation at 488 nm and emission at 510-570 nm) was obtained for 10 seconds before a 100 μl/well agonist or vehicle addition. The agonist was a 2× solution of α,β-meATP producing a final concentration of 1 μM (P2X3) or 5 μM (P2X2/3). Fluorescence was measured for an additional 2 minutes at 1 second intervals after agonist addition. A final addition of ionomycin (5 μM, final concentration) was made to each well of the FLIPR test plate to establish cell viability and maximum fluorescence of dye-bound cytosolic calcium. Peak fluorescence in response to the addition of α,β-meATP (in the absence and presence of test compounds) was measured and inhibition curves generated using nonlinear regression. PPADS, a standard P2X antagonist, was used as a positive control.

The target of assay [2] is T2, rat P2X3 receptor (Rattus norvegicus, UniProt P49654).
T2 construct: expressed in transfected cells; host or cells: CHO-K1
T2 sequence (P49654 1-397): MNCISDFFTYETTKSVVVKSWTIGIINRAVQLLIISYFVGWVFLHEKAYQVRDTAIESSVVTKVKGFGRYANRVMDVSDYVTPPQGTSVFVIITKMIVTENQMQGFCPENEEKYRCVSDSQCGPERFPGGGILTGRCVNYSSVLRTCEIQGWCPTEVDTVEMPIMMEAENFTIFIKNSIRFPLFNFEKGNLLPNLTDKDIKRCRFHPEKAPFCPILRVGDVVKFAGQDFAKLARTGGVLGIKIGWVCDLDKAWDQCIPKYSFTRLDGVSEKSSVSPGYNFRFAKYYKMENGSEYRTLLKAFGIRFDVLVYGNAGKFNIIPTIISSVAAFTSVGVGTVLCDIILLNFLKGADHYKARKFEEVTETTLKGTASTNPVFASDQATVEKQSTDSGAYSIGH
As to the kind of experiment: P2X3 FLIPR (Fluorometric Imaging Plate Reader) assay, CHO-K1 cells. The format is cell-based. The note with it: CHO-K1 cells transfected with cloned rat P2X3; agonist α,β-meATP 1 μM; Fluo-3 calcium fluorescence; read-out: P2X3 (pKi) (converted). The method, then: as §1, §2, §3

As for `Cc1ccc(-c2cc(C(=O)N[C@H](C)CO)cc(-c3nsnc3C(C)C)c2)nc1` [Compound 1, N-((R)-2-Hydroxy-1-methyl-ethyl)-3-(4-isopropyl-[1,2,5]thiadiazol-3-yl)-5-(5-methyl-pyridin-2-yl)-benzamide], the Ki is 72.4 nM in assay [1] and 6.92 nM in assay [2].
Take `COCC(C)NC(=O)c1cc(-c2ccc(C)cc2)cc(-c2csnn2)c1` (stereo not shown) [Compound 2, 4′-Methyl-5-[1,2,3]thiadiazol-4-yl-biphenyl-3-carboxylic acid (2-methoxy-1-methyl-ethyl)-amide]: the Ki in assay [2] was 4680 nM.
On to `Cc1ccc(-c2cc(C(=O)NCc3cnc(C)cn3)cc(-c3snnc3C(C)C)c2)nc1` [Compound 3, 3-(4-Isopropyl-[1,2,3]thiadiazol-5-yl)-N-(5-methyl-pyrazin-2-ylmethyl)-5-(5-methyl-pyridin-2-yl)-benzamide], for which the Ki was 37.2 nM in assay [1] and 9.12 nM in assay [2].
For the molecule `Cc1ccc(-c2cc(C(=O)N[C@H](C)CO)cc(-c3snnc3C(C)C)c2)nc1` [Compound 4, N-((R)-2-Hydroxy-1-methyl-ethyl)-3-(4-isopropyl-[1,2,3]thiadiazol-5-yl)-5-(5-methyl-pyridin-2-yl)-benzamide], the Ki was 214 nM in assay [1] and 4.27 nM in assay [2].
In the case of `Cc1ccc(-c2cc(C(=O)NCc3cnc(C)nc3)cc(-c3snnc3C(C)C)c2)nc1` [Compound 5, 3-(4-Isopropyl-[1,2,3]thiadiazol-5-yl)-5-(5-methyl-pyridin-2-yl)-N-(2-methyl-pyrimidin-5-ylmethyl)-benzamide], the Ki in assay [1] was 33.9 nM; in assay [2], 8.91 nM.
Take `Cc1ccc(-c2cc(C(=O)NCc3ncc(C)cn3)cc(-c3snnc3C(C)C)c2)nc1` [Compound 6, 3-(4-Isopropyl-[1,2,3]thiadiazol-5-yl)-5-(5-methyl-pyridin-2-yl)-N-(5-methyl-pyrimidin-2-ylmethyl)-benzamide]: the Ki was 105 nM in assay [1] and 16.6 nM in assay [2].
For the molecule `Cc1ccc(-c2cc(C(=O)NCc3cnc(C)cn3)cc(-c3nsnc3C(C)C)c2)nc1` [Compound 7, 3-(4-Isopropyl-[1,2,5]thiadiazol-3-yl)-N-(5-methyl-pyrazin-2-ylmethyl)-5-(5-methyl-pyridin-2-yl)-benzamide], the Ki in assay [1] is 43.7 nM; in assay [2] it was 18.2 nM.
